Assay results taken from US6737383B1, “Herbicidal oxadiazolidines” (priority 1999, dated 2004).

How the values were obtained:
[1] = system: blackgrass; test: Test E blackgrass; assay type: in vivo, Alopecurus myosuroides; conditions: Preemergence
[2] = system: wild oat; test: Test E wild oat; assay type: in vivo, Avena fatua; conditions: Preemergence
[3] = system: winter barley; test: Test E winter barley; assay type: in vivo, Hordeum vulgare; conditions: Preemergence
[4] = system: wild oat; test: Test B pre/postemergence wild oat; assay type: in vivo, Avena fatua
Outline: (§1)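 Test chemicals in a non-phytotoxic solvent mixture with surfactant were sprayed preemergence onto planted seeds and postemergence onto plants 2 to 18 cm tall (1- to 4-leaf stage). After twelve to sixteen days in a greenhouse, injury was visually rated against untreated controls from 0 (no effect) to 10 (complete control).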

[5] = system: wheat; test: Test B pre/postemergence wheat; assay type: in vivo, Triticum aestivum
Outline: as §1

[6] = system: crabgrass; test: Test B pre/postemergence crabgrass; assay type: in vivo, Digitaria sanguinalis
Outline: as §1

[7] = system: rice; test: Test B flood test rice; assay type: in vivo, Oryza sativa
Outline: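 Flood test on plants grown to the 2-leaf stage; treated plants kept in greenhouse twelve to sixteen days, then visually rated against controls on a 0 (no effect) to 10 (complete control) scale.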

[8] = system: Italian ryegrass; test: Test E Italian ryegrass; assay type: in vivo, Lolium multiflorum; conditions: Preemergence
[9] = system: green foxtail; test: Test E green foxtail; assay type: in vivo, Setaria viridis; conditions: Preemergence
[10] = system: winter wheat; test: Test E winter wheat; assay type: in vivo, Triticum aestivum; conditions: Preemergence
[11] = system: winter wheat; test: Test E winter wheat; assay type: in vivo, Triticum aestivum; conditions: Postemergence
Outline: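 Greenhouse test: for postemergence, foliar application at 1- to 4-leaf stage; compound in non-phytotoxic solvent with surfactant. Rating is visual, relative to untreated controls, about 21 to 28 days after treatment.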

[12] = Rate 500 g/ha, 0 to 100 scale where 0 is no effect and 100 is complete control
[13] = Postemergence, Rate 125 g/ha, scale of 0 to 10 where 0 is no effect and 10 is complete control
[14] = Preemergence, Rate 62 g/ha, scale 0 to 10 (0 no effect, 10 complete control)
[15] = Preemergence, Rate 125 g/ha, 0 is no effect, 10 is complete control
[16] = Preemergence, Rate 250 g/ha, scale of 0 to 10 where 0 is no effect and 10 is complete control
[17] = Preemergence, Rate 500 g/ha, scale 0 to 10 (0 no effect, 10 complete control)
[18] = Rate 62 g/ha, Postemergence, scale of 0 to 10 where 0 is no effect and 10 is complete control
[19] = Rate 250 g/ha, Postemergence, scale 0 to 10, 0 is no effect, 10 is complete control
[20] = Rate 500 g/ha, Postemergence, scale 0 to 10, 0 no effect, 10 complete control
[21] = Rate 1000 g/ha, 0 to 100 scale, 0 no effect, 100 complete control
[22] = Preemergence, Rate 62 g/ha, scale of 0 to 10 where 0 is no effect and 10 is complete control
[23] = Preemergence, Rate 500 g/ha, scale of 0 to 10 where 0 is no effect and 10 is complete control
[24] = Rate 125 g/ha, Postemergence, scale 0 to 10
[25] = Rate 125 g/ha, Preemergence, scale of 0 to 10 where 0 is no effect and 10 is complete control

For CC(C)N(C(=O)n1oc(=O)n(C(C)(C)C)c1=O)c1ccc(Cl)cc1 [Compound 118], the “Plant response rating, Blackgrass” value ([1]; Rate 250 g/ha, 0 to 100 scale) was 80, the “Plant response rating, Blackgrass” value [1, 12] was 100 and the “Plant response rating, Wild oat” value [2, 12] was 70. For the same compound, the “Plant response rating, Barley (winter)” value ([3]; Rate 250 g/ha, 0 to 100 scale) was 65, the “Plant response rating, Barley (winter)” value [3, 12] was 50 and the “Wild oats plant response rating” value [4, 13] was 0. For the same compound, the “Wild oats plant response rating” value [4, 14] was 0, the “Wild oats plant response rating (0 to 10 scale)” value [4, 15] was 1 and the “Plant response rating, Wild oats” value [4, 16] was 6. For the same compound, the “Wild oats plant response rating” value [4, 17] was 6, the “Wild oats plant response rating” value [4, 18] was 0 and the “Plant response rating, Wild oats” value [4, 19] was 0. For the same compound, the “Wild oats plant response rating” value [4, 20] was 2, the “Wheat plant response rating” value [5, 13] was 0 and the “Wheat plant response rating” value [5, 14] was 0. The “Wheat plant response rating (0 to 10 scale)” value [5, 15] was 0, the “Plant response rating, Wheat” value [5, 16] was 0 and the “Wheat plant response rating” value [5, 17] was 0. For the same compound, the “Wheat plant response rating” value [5, 18] was 0, the “Plant response rating, Wheat” value [5, 19] was 0 and the “Wheat plant response rating” value [5, 20] was 2. The “Crabgrass plant response rating” value [6, 13] was 7, the “Crabgrass plant response rating” value ([6]; Postemergence, Rate 250 g/ha, scale 0 to 10, 0 no effect, 10 complete control) was 7 and the “Crabgrass plant response rating” value [6, 14] was 7. For the same compound, the “Plant response rating, Crabgrass” value ([6]; Preemergence, Rate 125 g/ha, scale 0 to 10 (0 no effect, 10 complete control)) was 9, the “Plant response rating, Crabgrass” value [6, 16] was 10 and the “Crabgrass plant response rating” value [6, 17] was 10. For the same compound, the “Crabgrass plant response rating” value [6, 18] was 1, the “Crabgrass plant response rating” value [6, 20] was 9 and the “Rice plant response rating” value ([7]; Rate 250 g/ha, headed Pre-emergence (flood test species), scale 0 to 10 (0 no effect, 10 complete control)) was 0. The “Plant response rating, Rice” value ([7]; Rate 500 g/ha, headed Pre-emergence (flood test species), scale 0 to 10 (0 no effect, 10 complete control)) was 0, the “Rice plant response rating” value ([7]; Rate 1000 g/ha, Pre-emergence (as headed), scale 0 to 10) was 0 and the “Rice plant response rating” value ([7]; Rate 2000 g/ha, Pre-emergence (as headed), scale 0 to 10) was 0. The “Plant response rating, I. Ryegrass” value ([8]; Rate 250 g/ha, 0 to 100 scale) was 60, the “Plant response rating, I. Ryegrass” value [8, 12] was 60 and the “Plant response rating, Green foxtail” value ([9]; Rate 250 g/ha, 0 to 100 scale) was 55. For the same compound, the “Plant response rating, Green foxtail” value [9, 12] was 65, the “Plant response rating, Wheat (winter)” value ([10]; Rate 250 g/ha, 0 to 100 scale) was 50 and the “Plant response rating, Wheat (winter)” value [10, 12] was 70. For the same compound, the “Plant response rating, Wheat (winter)” value ([11]; Rate 250 g/ha, 0 to 100 scale (0 no effect, 100 complete control)) was 65 and the “Plant response rating, Wheat (winter)” value ([11]; Rate 500 g/ha, 0 to 100 scale, 0 no effect, 100 complete control) was 70.

In the case of C#CCn1c(=O)on(C(=O)N(c2ccc(F)cc2)C(C)C)c1=O [Compound 212], the “Blackgrass plant response rating (0 to 100 scale)” value ([1]; Rate 250 g/ha) is reported as 20, the “Plant response rating, Blackgrass” value [1, 12] is reported as 50 and the “Plant response rating, Blackgrass” value [1, 21] is reported as 65. The “Wild oat plant response rating (0 to 100 scale)” value ([2]; Rate 250 g/ha) was 60, the “Plant response rating, Wild oat” value [2, 12] was 70 and the “Plant response rating, Wild oat” value [2, 21] was 70. For the same compound, the “Barley (winter) plant response rating (0 to 100 scale)” value ([3]; Rate 250 g/ha) was 20, the “Plant response rating, Barley (winter)” value [3, 12] was 40 and the “Plant response rating, Barley (winter)” value [3, 21] was 50. For the same compound, the “Wild oats plant response rating” value [4, 22] was 0, the “Wild oats plant response rating” value [4, 16] was 3 and the “Plant response rating, Wild oats” value [4, 23] was 7. The “Wild oats plant response rating” value [4, 18] was 0, the “Wild oats plant response rating” value [4, 24] was 0 and the “Plant response rating (0 to 10; 0 is no effect, 10 is complete control), Wild oats” value ([4]; Rate 250 g/ha, Postemergence) was 0. The “Wheat plant response rating” value [5, 22] was 0, the “Wheat plant response rating” value [5, 16] was 5 and the “Plant response rating, Wheat” value [5, 23] was 7. For the same compound, the “Wheat plant response rating” value [5, 18] was 0, the “Wheat plant response rating” value [5, 24] was 0 and the “Wheat plant response rating” value [5, 25] was 0. The “Plant response rating (0 to 10; 0 is no effect, 10 is complete control), Wheat” value ([5]; Rate 250 g/ha, Postemergence) was 0, the “Crabgrass plant response rating” value [6, 22] was 0 and the “Crabgrass plant response rating” value [6, 16] was 5. The “Plant response rating, Crabgrass” value [6, 23] was 5, the “Crabgrass plant response rating” value [6, 18] was 6 and the “Crabgrass plant response rating” value [6, 24] was 6. For the same compound, the “Crabgrass plant response rating” value [6, 25] was 4, the “Plant response rating (0 to 10; 0 is no effect, 10 is complete control), Crabgrass” value ([6]; Rate 250 g/ha, Postemergence) was 8 and the “Crabgrass plant response rating” value ([6]; Rate 500 g/ha, Postemergence, scale 0 to 10) was 9. The “Rice plant response rating” value ([7]; Rate 62 g/ha, headed Pre-emergence (flood test species), scale 0 to 10 (0 no effect, 10 complete control)) was 0, the “Rice plant response rating” value ([7]; Rate 125 g/ha, Pre-emergence, flood test species, scale 0 to 10 where 0 is no effect and 10 is complete control) was 0 and the “Rice plant response rating” value ([7]; Rate 250 g/ha, Pre-emergence, flood-test species, scale 0 to 10, 0 is no effect, 10 is complete control) was 0. For the same compound, the “Rice plant response rating” value ([7]; Rate 500 g/ha, Pre-emergence, flood test species, scale 0 to 10 (0 no effect, 10 complete control)) was 0, the “I. Ryegrass plant response rating (0 to 100 scale)” value ([8]; Rate 250 g/ha) was 60 and the “Plant response rating, I. Ryegrass” value [8, 12] was 70. For the same compound, the “Plant response rating, I. Ryegrass” value [8, 21] was 70, the “Green foxtail plant response rating (0 to 100 scale)” value ([9]; Rate 250 g/ha) was 55 and the “Plant response rating, Green foxtail” value [9, 12] was 65. For the same compound, the “Plant response rating, Green foxtail” value [9, 21] was 100, the “Wheat (winter) plant response rating (0 to 100 scale)” value ([10]; Rate 250 g/ha) was 10 and the “Plant response rating, Wheat (winter)” value [10, 12] was 30. For the same compound, the “Plant response rating, Wheat (winter)” value [10, 21] was 60, the “Plant response rating, Wheat (winter)” value ([11]; Rate 1000 g/ha, 0 to 100 scale, 0 is no effect and 100 is complete control) was 75 and the “Plant response rating, Wheat (winter)” value ([11]; Rate 500 g/ha, 0 to 100 scale, 0 is no effect, 100 is complete control) was 70.
